Measurements published in patent US20240199571A1, “THIOPHENE COMPOUND AND APPLICATION THEREOF” (MEDSHINE DISCOVERY INC., priority 2021, published 2024).
Where a name gives a salt, the structure may show the parent alone.

Key:
[1] = target: hERG potassium ion channels (Homo sapiens (Human), UniProt Q12809); assay: Experiment 4: hERG potassium ion channel inhibition, automated patch clamp (Qpatch), CHO-hERG cells; type: cell-based; conditions: highest test concentration 40 μM
Description: Experiment 4: hERG Potassium Ion Channel Inhibition Assay
Experimental purpose: To test the effects of the test examples on hERG potassium ion channels using an automated patch clamp method.
4.1.1 CHO-hERG cells were cultured in a 175 cm^2 culture flask. When the cell density grew from 60% to 80%, the culture medium was removed. The cells were washed once with 7 mL of PBS (Phosphate Buffered Saline), and then 3 mL of Detachin cell dissociation reagent was added thereto for digestion.
4.1.2 After the digestion was completed, 7 mL of culture medium was added thereto for neutralization, then the mixture was centrifuged, the supernatant was aspirated, and then 5 mL of culture medium was added thereto for resuspension to ensure a cell density of 2×10^6/mL to 5×10^6/ML.
The single-cell high-resistance sealing and whole-cell modeling formation processes were all automatically completed by the Qpatch instrument of the Shanghai Institute of Materia Medica, Chinese Academy of Sciences. After obtaining the whole-cell recording modeling, the cells were clamped at −80 mV, and before a 5-second +40 mV depolarizing stimulus was given, a 50-millisecond −50 mV prepulse was first given, then the voltage was repolarized to −50 mV and holden for 5 seconds, and finally returned to −80 mV. This voltage stimulus was applied every 15 seconds, recorded for 2 minutes, and then the extracellular fluid was recorded for 5 minutes, and then the administration process was initiated, with compound concentrations starting at the lowest test concentration. The voltage stimulus was given for 2.5 minutes for each test concentration, and after all concentrations had been continuously given, 3 μM the positive control compound, Cisapride, was given. At least 3 cells were tested per concentration (n≥3).
4.4.1 The compound stock solution was diluted with DMSO, and 20 μL of DMSO solution was added with 10 μL of the compound stock solution, and serially diluted 3-fold to 6 DMSO concentrations.
4.4.2 4 μL of 6 DMSO concentrations of compounds were taken respectively and added to 396 μL of extracellular fluid, and the mixture was diluted 100-fold to 6 intermediate concentrations, then 80 μL of 6 intermediate concentrations of compounds was taken and added to 320 μL of extracellular fluid, and the mixture was diluted 5-fold to the final test concentration.
4.4.3 The highest test concentration was 40 μM, and the concentrations were respectively 40, 13.3, 4.4, 1.48, 0.494, and 0.165 μM for a total of six concentrations.
4.4.5 The preparation of the compound was completed by the Bravo instrument throughout the dilution process.
Experimental data were analyzed by GraphPad Prism 5.0 software.

NCI-H1417 cells = assay: Experiment 2: inhibition of NCI-H1417 cell proliferation (CellTiter-Glo, 10 days); type: cell-based; conditions: Homo sapiens, 240 h, 10 days incubation
Description: Experiment 2: Evaluation of Inhibitory Activity on NCI-H1417 Cell Proliferation
Experimental purpose: To test the inhibitory activity of test compounds on NCI-H1417 cell proliferation.
Experimental materials: RPMI 1640 medium, fetal bovine serum, Promega CellTiter-Glo reagent. The NCI-H1417 cell line was purchased from ATCC. Envision multilabel plate reader (PerkinElmer).
Experimental method: The compounds were dissolved to 10 mM and 5-fold diluted with DMSO in the compound plates, starting with a concentration of 2 mM. 3-fold serial dilution was performed with Bravo to 10 concentrations. Then 250 nL of the compound solution was transferred to the upper and lower double duplicate wells of a blank 384 cell plate with Echo. To each well containing the transferred 250 nL of DMSO/compound was added a cell suspension of 1000 cells/50 μL per well, and the compound was diluted 200-fold, i.e., resulting in an initial working concentration of 10 μM. The cell plate was incubated in a carbon dioxide incubator for 10 days. To the cell plate was added 25 μL of Promega CellTiter-Glo reagent per well and the mixture was shaken for 10 minutes at room temperature to stabilize the luminescence signal. Readings were performed on a PerkinElmer Envision multilabel plate reader.
Data analysis: Raw data were converted into inhibition rate using the formula: (Max−Ratio)/(Max−Min)*100%. The IC50 values could then be derived from four-parameter curve fitting. (derived from 205 mode in XLFIT5, iDBS)
The compounds were tested for inhibitory activity of compounds on NCI-H1417 cell proliferation, and the results are shown in Table 3.

human LSD1 = human LSD1 (Homo sapiens (Human), UniProt O60341); assay: Experiment 1B: in vitro LSD1 enzyme activity, enzyme-coupled fluorescence (HRP/Amplex Red), H3(1-21)K4me2 peptide 10 μM (Reaction Biology); type: biochemical; conditions: histone H3(1-21)K4me2 peptide 10 μM
Description: Experiment 1B: Evaluation of Enzyme Activity
Testing unit: Reaction Biology Corp., USA.
The purpose of the assay was to test the in vitro inhibitory activity of the compounds against LSD1. The enzyme used in the assay was human LSD1, and the standard substrate was histone H3(1-21)K4me2 peptide (10 μM). The activity of the compounds was determined by the enzyme-coupling fluorescent method by the combined detection of H2O2 generated after the reaction of LSD1 by horseradish peroxidase (HRP) and the fluorescent reagent Amplex Red. Starting from 10 μM, the compounds were 3-fold diluted to detect the IC50 values of the compounds at 10 concentrations. The enzyme and substrate were incubated for 30 minutes before the compound was added to the substrate to start the reaction. Fluorescence detector: EnVision, excitation wavelength: Ex/Em=535/590 nM.

[2] = Experiment 3: pharmacokinetic evaluation in CD-1 mice (IV and oral); type: in vivo; conditions: mouse, plasma, male CD-1 mice
Description: Experiment 3: Pharmacokinetic Evaluation of Compounds
Experimental purpose: To test the pharmacokinetics of compounds in CD-1 mice in vivo
CD-1 mice (male/female, 7 to 9 weeks old, Shanghai SLAC)
The pharmacokinetic characteristics of the compounds in rodents after intravenous injection and oral administration were tested according to the standard protocol. In the experiment, the candidate compound was formulated into clear solutions, and a single intravenous injection and oral administration were given to mice. The vehicle for intravenous injection and oral administration was a mixed vehicle composed of 10% dimethyl sulfoxide and 90% hydroxypropyl β-cyclodextrin with a content of 10%. In this project, four male/female CD-1 mice were used. Two mice were injected intravenously at a dose of 1 mg/kg, and plasma samples were collected at 0.083, 0.25, 0.5, 1, 2, 4, 8, and 24 hours after administration; the other two were administered orally by gavage at a dose of 2 mg/kg, and plasma samples were collected at 0.25, 0.5, 1, 2, 4, 8, and 24 hours after administration. The samples were centrifuged at 3200 g for 10 minutes at 4° C., and plasma samples were obtained by separating the supernatant. A methanol solution containing internal standard with 20 times the volume of the sample was added thereto to precipitate the protein, and the mixture was centrifuged at 12000 g for 15 minutes at 4° C. 50 μL of the supernatant was taken and transferred to a 96-well plate and centrifuged again. The supernatant was taken for sampling. The plasma concentration was quantitatively analyzed using LC-MS/MS analysis method, and pharmacokinetic parameters, such as peak concentration (Cmax), clearance rate (CL), half-life (T1/2), volume of distribution at steady state (Vdss), area under drug-time curve (AUC0-last), bioavailability (F).

Chain of hERG potassium ion channels (Q12809 whole entry): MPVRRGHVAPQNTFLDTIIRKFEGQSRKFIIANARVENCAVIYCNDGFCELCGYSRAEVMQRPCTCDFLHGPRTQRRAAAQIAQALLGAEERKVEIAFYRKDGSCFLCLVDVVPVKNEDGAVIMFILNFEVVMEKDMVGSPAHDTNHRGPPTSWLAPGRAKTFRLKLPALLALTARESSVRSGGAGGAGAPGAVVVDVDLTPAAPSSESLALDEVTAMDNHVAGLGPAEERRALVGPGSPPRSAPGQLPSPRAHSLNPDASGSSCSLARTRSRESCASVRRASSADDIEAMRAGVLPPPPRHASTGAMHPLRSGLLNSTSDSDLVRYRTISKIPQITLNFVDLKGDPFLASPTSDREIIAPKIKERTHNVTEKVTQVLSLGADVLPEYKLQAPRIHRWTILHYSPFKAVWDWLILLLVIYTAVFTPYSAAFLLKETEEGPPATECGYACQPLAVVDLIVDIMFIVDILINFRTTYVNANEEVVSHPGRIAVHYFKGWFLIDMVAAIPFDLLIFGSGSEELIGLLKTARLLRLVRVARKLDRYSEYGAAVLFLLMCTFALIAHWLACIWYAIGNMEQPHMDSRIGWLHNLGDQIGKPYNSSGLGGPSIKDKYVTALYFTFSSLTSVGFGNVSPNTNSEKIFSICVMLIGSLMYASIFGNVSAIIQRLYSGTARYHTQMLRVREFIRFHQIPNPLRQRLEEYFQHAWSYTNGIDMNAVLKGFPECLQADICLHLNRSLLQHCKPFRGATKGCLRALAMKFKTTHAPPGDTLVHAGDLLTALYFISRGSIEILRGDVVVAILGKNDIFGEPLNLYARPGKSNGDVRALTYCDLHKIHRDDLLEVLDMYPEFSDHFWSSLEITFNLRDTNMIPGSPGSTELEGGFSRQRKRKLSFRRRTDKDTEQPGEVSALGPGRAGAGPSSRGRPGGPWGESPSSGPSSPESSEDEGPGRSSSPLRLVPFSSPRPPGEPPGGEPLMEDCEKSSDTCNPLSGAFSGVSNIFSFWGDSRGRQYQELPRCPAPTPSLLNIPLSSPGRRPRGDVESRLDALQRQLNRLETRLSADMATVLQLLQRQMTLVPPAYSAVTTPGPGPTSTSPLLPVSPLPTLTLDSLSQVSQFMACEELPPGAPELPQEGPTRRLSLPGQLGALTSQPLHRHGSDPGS

Row | IC50 (NCI-H1417 cells) | IC50 (human LSD1) | SMILES | IC50 [1] | other results
1 |  |  | CC(C)(O)Cn1cc2cc(-c3sc(C(=O)N4CCC[C@@H](N)C4)cc3-c3ccc(C#N)c(F)c3)cnc2n1 [Compound 61] | > 40000 nM | 
2 |  |  | N#Cc1ccc(-c2cc(C(=O)N3CCC[C@@H](N)C3)sc2-c2ccc3nncn3c2)cc1F [Compound 67] | > 40000 nM | 
3 | 9.88 nM |  | N#Cc1ccc(-c2cc(C(=O)N3CCC[C@@H](N)C3)sc2-c2ccc3nn(C4COC4)cc3c2)cc1F [Compound 70] | 18700 nM | 
4 |  |  | N#Cc1ccc(-c2cc(C(=O)N3CCC[C@@H](N)C3)sc2-c2ccn3cnnc3c2)cc1F [Compound 76] | > 40000 nM | 
5 |  |  | N#Cc1ccc(-c2cc(C(=O)N3CCC[C@@H](N)C3)sc2-c2ccc3oncc3c2)cc1F [Compound 77] | > 40000 nM | 
6 |  |  | CC1(O)CN(C(=O)c2ccc(-c3sc(C(=O)N4CCC[C@@H](N)C4)cc3-c3ccc(C#N)c(F)c3)cc2)C1 [Compound 81] | > 40000 nM | 
7 |  | 122 nM | N#Cc1ccc(-c2cc(C(=O)N3CCC[C@@H](N)C3)sc2-c2ccc(OCC(=O)O)c(F)c2)cc1F [Hydrochloride of compound 30] | > 40000 nM | 
8 |  |  | Cn1cc(-c2sc(C(=O)N3CCC[C@@H](N)C3)cc2-c2ccc(C#N)c(F)c2)ccc1=O [Hydrochloride of compound 32] | > 40000 nM | 
9 |  |  | N#Cc1ccc(-c2cc(C(=O)N3CCC[C@@H](N)C3)sc2-c2cnc(N)nc2)cc1F [Hydrochloride of compound 45] | 32600 nM | 
10 | 16.1 nM | 20.2 nM | COC1CC(n2cc3cc(-c4sc(C(=O)N5CCC[C@@H](N)C5)cc4-c4ccc(C#N)c(F)c4)ccc3n2)C1 (some centres unmarked) [Hydrochloride of compound 80] |  | clearance ([2]; IV 1 mg/kg, read-out: Clearance rate CL): 33.7 mL/min/kg; half-life ([2]; IV 1 mg/kg, read-out: Half life T1/2 (IV, h) (converted)): 1.93 h; Vd ([2]; IV 1 mg/kg, read-out: Volume of distribution at steady state Vdss): 4.89 L/kg; bioavailability ([2]; PO 2 mg/kg vs IV 1 mg/kg, read-out: Bioavailability F (%)): 31.9%; AUC(0-t) ([2]; PO 2 mg/kg, read-out: Area under drug-time curve AUC0-last PO): 0.576 µM·h; Cmax ([2]; single dose, oral 2 mg/kg, read-out: Peak concentration Cmax): 109 nM
11 | 2.51 nM | 10.1 nM | N#Cc1ccc(-c2cc(C(=O)N3CCC[C@@H](N)C3)sc2-c2cc3cn(CC4(O)CCC4)nc3cc2F)cc1F [Hydrochloride of compound 95] |  | 
12 | 4.79 nM | 20.6 nM | N#Cc1ccc(-c2cc(C(=O)N3CCC[C@@H](N)C3)sc2-c2ccc(N3CC[C@H](O)C3)c(F)c2)cc1F [Hydrochloride of compound 96] |  | 
13 | 9.6 nM | 25.3 nM | N#Cc1ccc(-c2cc(C(=O)N3CCC[C@@H](N)C3)sc2-c2cc3nnn([C@H]4COCC[C@@H]4O)c3c(F)c2F)cc1F [Hydrochloride of compound 97] |  | 
14 | 0.37 nM | 14.1 nM | N#Cc1ccc(-c2cc(C(=O)N3CCCNCC3)sc2-c2cc3nnn(CC4(O)CCC4)c3c(F)c2F)cc1F [Hydrochloride of compound 100] |  | 
15 | 3.35 nM | 28.7 nM | N#Cc1ccc(-c2cc(C(=O)N3CCC[C@@H](N)C3)sc2-c2ccc(N3CC[C@@H](O)C3)c(F)c2)cc1F [Hydrochloride of compound 101] |  | 
16 | 31.4 nM | 56.9 nM | CC(C)(CO)n1cc2cc(-c3sc(C(=O)N4CCCNCC4)cc3-c3ccc(C#N)c(F)c3)ccc2n1 [Hydrochloride of compound 102] |  | 
17 | 13.7 nM | 21.6 nM | CC(C)(CO)n1nnc2cc(-c3sc(C(=O)N4CCCNCC4)cc3-c3ccc(C#N)c(F)c3)c(F)c(F)c21 [Hydrochloride of compound 103] |  | 
18 | 4.75 nM | 16.6 nM | CN[C@@H]1CCCN(C(=O)c2cc(-c3ccc(C#N)c(F)c3)c(-c3ccc4nn(C(C)(C)CO)cc4c3)s2)C1 [Hydrochloride of compound 104] |  | 
19 | 3.31 nM | 15.1 nM | N#Cc1ccc(-c2cc(C(=O)N3CCC[C@@H](N)C3)sc2-c2ccc(N3CC[C@H](O)C3)cc2)cc1F [Hydrochloride of compound 107] |  | 
20 | 2.03 nM | 10.7 nM | CN[C@@H]1CCCN(C(=O)c2cc(-c3ccc(C#N)c(F)c3)c(-c3ccc(N4CC[C@@H](O)C4)cc3)s2)C1 [Hydrochloride of compound 109] |  | 
21 | 3.47 nM | 9.84 nM | N#Cc1ccc(-c2cc(C(=O)N3CCC[C@@H](N)C3)sc2-c2ccc(N3CC[C@@H](O)C3)cc2)cc1F [Hydrochloride of compound 110] |  | 
22 | 4.99 nM | 5.84 nM | N#Cc1ccc(-c2cc(C(=O)N3CCC[C@@H](N)C3)sc2-c2ccc(N3CC[C@@H](O)C3)cc2F)cc1F [Hydrochloride of compound 112] |  | 
23 | 40.2 nM | 19 nM | N#Cc1ccc(-c2cc(C(=O)N3CCCNCC3)sc2-c2ccc(N3CC[C@@H](O)C3)cc2)cc1F [Hydrochloride of compound 117] |  | 
24 | 31.6 nM | 13.8 nM | CC1(O)CN(c2ccc(-c3sc(C(=O)N4CCC[C@@H](N)C4)cc3-c3ccc(C#N)c(F)c3)cc2)C1 [Hydrochloride of compound 118] |  | 
25 | 9.17 nM | 17.7 nM | CC(C)(O)CNc1ccc(-c2sc(C(=O)N3CCC[C@@H](N)C3)cc2-c2ccc(C#N)c(F)c2)cc1F [Hydrochloride of compound 119] |  | 
26 | 17.5 nM | 9.4 nM | N#Cc1ccc(-c2cc(C(=O)N3CCC[C@@H](N)C3)sc2-c2ccc(NCC3(O)CCC3)c(F)c2)cc1F [Hydrochloride of compound 120] |  | 
27 | 6.25 nM | 26.7 nM | Cn1nc2ccc(-c3sc(C(=O)N4CCC[C@@H](N)C4)cc3-c3ccc(C#N)c(F)c3)cc2c1F [Hydrochloride of compound 123] |  | 
